Results published in patent US12234221B2, “Pyridine carboxamide compounds for inhibiting NAV1.8” (Lieber Institute, Inc., priority 2018, dated 2025).

These compounds were tested against T1, human Nav1.8 (hNav1.8) ion channel (Homo sapiens, UniProt Q9Y5Y9) (assay: Nav1.8 channel inhibition, estimated IC50 (one or more of: fluorescence inhibition assay, PatchXpress, IonFlux HT automated patch clamp)). Conditions: HEK293 cells stably expressing hNav1.8; method used per compound not stated; read-out: Activity range (estimated IC50).
T1 construct: expressed in transfected cells; host or cells: HEK293
Format: cell-based
Summary of the method: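 HEK293 cells stably expressing hNav1.8 with β1/β2 subunits; IC50 from the fluorescence assay and/or automated whole-cell patch clamp (PatchXpress, IonFlux HT). Fluorescence: ANG-2 Na dye, 5 min compound preincubation (0.02–5 μM, 1% DMSO) with 30 μM ouabain, stimulation by 10 μM deltamethrin, peak signal fit logistically. PatchXpress: holding potential reset to Vhalf, inhibition normalized to control/washout currents.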

T1 sequence (Q9Y5Y9 whole entry): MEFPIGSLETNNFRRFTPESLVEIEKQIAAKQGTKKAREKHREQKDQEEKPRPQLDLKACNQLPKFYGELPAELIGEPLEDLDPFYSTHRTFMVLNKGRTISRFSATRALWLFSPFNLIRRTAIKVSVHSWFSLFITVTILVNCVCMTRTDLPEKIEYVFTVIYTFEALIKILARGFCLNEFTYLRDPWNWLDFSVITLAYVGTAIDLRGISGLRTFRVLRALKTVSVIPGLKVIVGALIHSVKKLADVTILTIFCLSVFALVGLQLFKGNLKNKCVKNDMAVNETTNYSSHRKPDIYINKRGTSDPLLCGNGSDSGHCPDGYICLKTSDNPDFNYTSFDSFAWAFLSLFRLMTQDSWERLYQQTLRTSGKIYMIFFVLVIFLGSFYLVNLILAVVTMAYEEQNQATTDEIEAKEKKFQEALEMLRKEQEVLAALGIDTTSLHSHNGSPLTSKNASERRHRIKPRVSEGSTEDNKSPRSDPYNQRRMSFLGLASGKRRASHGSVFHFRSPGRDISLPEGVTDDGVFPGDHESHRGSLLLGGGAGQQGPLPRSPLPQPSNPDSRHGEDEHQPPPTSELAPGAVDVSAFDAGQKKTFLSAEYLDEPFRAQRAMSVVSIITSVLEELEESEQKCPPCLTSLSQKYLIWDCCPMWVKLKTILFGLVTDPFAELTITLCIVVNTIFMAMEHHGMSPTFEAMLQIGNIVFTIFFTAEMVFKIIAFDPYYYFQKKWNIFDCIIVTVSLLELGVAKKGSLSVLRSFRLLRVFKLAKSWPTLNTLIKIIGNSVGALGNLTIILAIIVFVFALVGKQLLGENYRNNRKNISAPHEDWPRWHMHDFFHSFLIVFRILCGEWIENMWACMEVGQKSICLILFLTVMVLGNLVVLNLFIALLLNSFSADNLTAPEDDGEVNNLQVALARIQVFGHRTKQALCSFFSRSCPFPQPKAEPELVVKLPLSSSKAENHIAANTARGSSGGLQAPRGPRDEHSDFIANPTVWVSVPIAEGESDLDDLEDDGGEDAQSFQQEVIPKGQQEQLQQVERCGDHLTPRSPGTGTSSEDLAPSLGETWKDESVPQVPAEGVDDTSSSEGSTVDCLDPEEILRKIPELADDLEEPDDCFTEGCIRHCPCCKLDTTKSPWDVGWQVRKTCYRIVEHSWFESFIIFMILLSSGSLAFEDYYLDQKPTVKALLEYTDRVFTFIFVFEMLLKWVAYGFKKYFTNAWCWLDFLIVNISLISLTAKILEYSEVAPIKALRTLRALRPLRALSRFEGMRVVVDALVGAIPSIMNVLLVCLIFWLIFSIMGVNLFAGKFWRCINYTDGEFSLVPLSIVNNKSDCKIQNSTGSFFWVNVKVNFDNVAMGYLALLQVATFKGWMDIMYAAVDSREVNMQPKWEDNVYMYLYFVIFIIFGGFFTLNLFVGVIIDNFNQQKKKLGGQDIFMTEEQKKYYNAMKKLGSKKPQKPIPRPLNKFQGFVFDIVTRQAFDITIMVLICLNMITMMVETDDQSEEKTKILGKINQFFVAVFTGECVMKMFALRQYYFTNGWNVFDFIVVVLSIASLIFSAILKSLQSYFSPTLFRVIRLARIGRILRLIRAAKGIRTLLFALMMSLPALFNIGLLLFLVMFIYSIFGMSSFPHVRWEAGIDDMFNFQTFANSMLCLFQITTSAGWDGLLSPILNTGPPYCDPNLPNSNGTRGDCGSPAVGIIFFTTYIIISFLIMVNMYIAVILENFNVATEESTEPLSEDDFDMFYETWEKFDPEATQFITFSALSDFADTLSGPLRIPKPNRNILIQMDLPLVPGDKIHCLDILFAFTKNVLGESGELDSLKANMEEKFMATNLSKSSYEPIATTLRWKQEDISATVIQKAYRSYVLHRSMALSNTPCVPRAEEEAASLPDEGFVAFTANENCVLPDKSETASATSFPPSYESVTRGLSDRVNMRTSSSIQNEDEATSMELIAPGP

IC50 | SMILES
500 to 1000 nM | O=C(Nc1cccnc1)c1cc(C(F)(F)F)cnc1Oc1ccc(OC(F)(F)F)cc1 [Example 126, N-(3-pyridyl)-2-[4-(trifluoromethoxy)phenoxy]-5-(trifluoromethyl)pyridine-3-carboxamide]
< 500 nM | O=C(Nc1ccncc1)c1cc(C(F)(F)F)cnc1Oc1ccc(OC(F)(F)F)cc1 [Example 127, N-(4-pyridyl)-2-[4-(trifluoromethoxy)phenoxy]-5-(trifluoromethyl)pyridine-3-carboxamide]
< 500 nM | O=C(Nc1ccnnc1)c1cc(C(F)(F)F)cnc1Oc1ccc(OC(F)(F)F)cc1 [Example 128, N-pyridazin-4-yl-2-[4-(trifluoromethoxy)phenoxy]-5-(trifluoromethyl)pyridine-3-carboxamide]
> 1000 nM | CS(C)(=O)=Nc1cccc(NC(=O)c2cc(C(F)(F)F)cnc2Oc2ccc(OC(F)(F)F)cc2)c1 [Example 129, N-[3-[[dimethyl(oxo)-λ^6-sulfanylidene]amino]phenyl]-2-[4-(trifluoromethoxy)phenoxy]-5-(trifluoromethyl)pyridine-3-carboxamide]
< 500 nM | O=C(Nc1ccc[n+]([O-])c1)c1cc(C(F)(F)F)cnc1Oc1ccc(OC(F)(F)F)cc1 [Example 132, N-(1-oxidopyridin-1-ium-3-yl)-2-[4-(trifluoromethoxy)phenoxy]-5-(trifluoromethyl)pyridine-3-carboxamide]
> 1000 nM | Cc1cc(F)ccc1Oc1ncc(C(F)(F)F)cc1C(=O)Nc1ccc[n+]([O-])c1 [Example 133, 2-(4-fluoro-2-methyl-phenoxy)-N-(1-oxidopyridin-1-ium-3-yl)-5-(trifluoromethyl)pyridine-3-carboxamide]
> 1000 nM | COc1cc(F)ccc1Oc1ncc(C(F)(F)F)cc1C(=O)Nc1ccc[n+]([O-])c1 [Example 134, 2-(4-fluoro-2-methoxy-phenoxy)-N-(1-oxidopyridin-1-ium-3-yl)-5-(trifluoromethyl)pyridine-3-carboxamide]
> 1000 nM | O=C(Nc1ccc[n+]([O-])c1)c1cc(C(F)(F)F)cnc1Oc1ccc(F)cc1F [Example 135, 2-(2,4-difluorophenoxy)-N-(1-oxidopyridin-1-ium-3-yl)-5-(trifluoromethyl)pyridine-3-carboxamide]
< 500 nM | O=C(Nc1ccc[n+]([O-])c1)c1cc(C(F)(F)F)cnc1Oc1ccc(OC(F)F)cc1 [Example 136, 3-(2-(4-(difluoromethoxy)phenoxy)-5-(trifluoromethyl)nicotinamido)pyridine 1-oxide]
< 500 nM | COc1ccc(Oc2ncc(C(F)(F)F)cc2C(=O)Nc2ccc[n+]([O-])c2)c(OC)c1 [Example 137, 3-(2-(2,4-dimethoxyphenoxy)-5-(trifluoromethyl)nicotinamido)pyridine 1-oxide]
< 500 nM | COc1ccc(Oc2ncc(C(F)(F)F)cc2C(=O)Nc2ccc[n+]([O-])c2)c(Cl)c1 [Example 138, 3-(2-(2-chloro-4-methoxyphenoxy)-5-(trifluoromethyl)nicotinamido)pyridine 1-oxide]
< 500 nM | O=C(Nc1cc[n+]([O-])cc1)c1cc(C(F)(F)F)cnc1Oc1ccc(OC(F)(F)F)cc1 [Example 141, N-(1-oxidopyridin-1-ium-4-yl)-2-[4-(trifluoromethoxy)phenoxy]-5-(trifluoromethyl)pyridine-3-carboxamide]
< 500 nM | CS(=O)(=O)c1cccc(NC(=O)c2cc(C(F)(F)F)cnc2Oc2ccc(OC(F)(F)F)cc2Cl)c1 [Example 142, 2-[2-chloro-4-(trifluoromethoxy)phenoxy]-N-(3-methylsulfonylphenyl)-5-(trifluoromethyl)pyridine-3-carboxamide]
500 to 1000 nM | CCS(=O)(=O)c1cccc(NC(=O)c2cc(C(F)(F)F)cnc2Oc2ccc(OC(F)(F)F)cc2Cl)c1 [Example 143, 2-[2-chloro-4-(trifluoromethoxy)phenoxy]-N-(3-ethylsulfonylphenyl)-5-(trifluoromethyl)pyridine-3-carboxamide]
< 500 nM | CN=S(C)(=O)c1cccc(NC(=O)c2cc(C(F)(F)F)cnc2Oc2ccc(OC(F)(F)F)cc2Cl)c1 (stereo not drawn) [Example 144, 2-[2-chloro-4-(trifluoromethoxy)phenoxy]-N-[3-(N,S-dimethylsulfonimidoyl)phenyl]-5-(trifluoromethyl)pyridine-3-carboxamide]
< 500 nM | N#Cc1cccc(NC(=O)c2cc(C(F)(F)F)cnc2Oc2ccc(OC(F)(F)F)cc2Cl)c1 [Example 146, 2-[2-chloro-4-(trifluoromethoxy)phenoxy]-N-(3-cyanophenyl)-5-(trifluoromethyl)pyridine-3-carboxamide]
< 500 nM | Cn1cc(NC(=O)c2cc(C(F)(F)F)cnc2Oc2ccc(OC(F)(F)F)cc2Cl)cn1 [Example 147, 2-[2-chloro-4-(trifluoromethoxy)phenoxy]-N-(1-methylpyrazol-4-yl)-5-(trifluoromethyl)pyridine-3-carboxamide]

IC50 | SMILES
500 to 1000 nM | NC(=O)c1cccc(NC(=O)c2cc(C(F)(F)F)cnc2Oc2ccc(OC(F)(F)F)cc2Cl)c1 [Example 148, N-(3-carbamoylphenyl)-2-[2-chloro-4-(trifluoromethoxy)phenoxy]-5-(trifluoromethyl)pyridine-3-carboxamide]
> 1000 nM | CC(=O)c1cccc(NC(=O)c2cc(C(F)(F)F)cnc2Oc2ccc(OC(F)(F)F)cc2Cl)c1 [Example 149, N-(3-acetylphenyl)-2-[2-chloro-4-(trifluoromethoxy)phenoxy]-5-(trifluoromethyl)pyridine-3-carboxamide]
< 500 nM | Cn1ccc(NC(=O)c2cc(C(F)(F)F)cnc2Oc2ccc(OC(F)(F)F)cc2Cl)cc1=O [Example 150, 2-[2-chloro-4-(trifluoromethoxy)phenoxy]-N-(1-methyl-2-oxo-4-pyridyl)-5-(trifluoromethyl)pyridine-3-carboxamide]
< 500 nM | CN(C)C(=O)c1cccc(NC(=O)c2cc(C(F)(F)F)cnc2Oc2ccc(OC(F)(F)F)cc2Cl)c1 [Example 151, 2-[2-chloro-4-(trifluoromethoxy)phenoxy]-N-[3-(dimethylcarbamoyl)phenyl]-5-(trifluoromethyl)pyridine-3-carboxamide]
< 500 nM | CS(=O)(=O)c1ccc(NC(=O)c2cc(C(F)(F)F)cnc2Oc2ccc(OC(F)(F)F)cc2Cl)cc1 [Example 152, 2-[2-chloro-4-(trifluoromethoxy)phenoxy]-N-(4-methylsulfonylphenyl)-5-(trifluoromethyl)pyridine-3-carboxamide]
> 1000 nM | CN(C)S(=O)(=O)c1cccc(NC(=O)c2cc(C(F)(F)F)cnc2Oc2ccc(OC(F)(F)F)cc2Cl)c1 [Example 154, 2-[2-chloro-4-(trifluoromethoxy)phenoxy]-N-[3-(dimethylsulfamoyl)phenyl]-5-(trifluoromethyl)pyridine-3-carboxamide]
< 500 nM | O=C(Nc1ccc(F)c(F)c1)c1cc(C(F)(F)F)cnc1Oc1ccc(OC(F)(F)F)cc1Cl [Example 155, 2-[2-chloro-4-(trifluoromethoxy)phenoxy]-N-(3,4-difluorophenyl)-5-(trifluoromethyl)pyridine-3-carboxamide]
500 to 1000 nM | COc1ccc(NC(=O)c2cc(C(F)(F)F)cnc2Oc2ccc(OC(F)(F)F)cc2Cl)cn1 [Example 156, 2-[2-chloro-4-(trifluoromethoxy)phenoxy]-N-(6-methoxy-3-pyridyl)-5-(trifluoromethyl)pyridine-3-carboxamide]
500 to 1000 nM | O=C(Nc1cncnc1)c1cc(C(F)(F)F)cnc1Oc1ccc(OC(F)(F)F)cc1Cl [Example 157, 2-[2-chloro-4-(trifluoromethoxy)phenoxy]-N-pyrimidin-5-yl-5-(trifluoromethyl)pyridine-3-carboxamide]
< 500 nM | O=C(Nc1cccc(CO)c1)c1cc(C(F)(F)F)cnc1Oc1ccc(OC(F)(F)F)cc1Cl [Example 160, 2-[2-chloro-4-(trifluoromethoxy)phenoxy]-N-[3-(hydroxymethyl)phenyl]-5-(trifluoromethyl)pyridine-3-carboxamide]
< 500 nM | O=C(Nc1ccnnc1)c1cc(C(F)(F)F)cnc1Oc1ccc(OC(F)(F)F)cc1Cl [Example 161, 2-[2-chloro-4-(trifluoromethoxy)phenoxy]-N-pyridazin-4-yl-5-(trifluoromethyl)pyridine-3-carboxamide]
< 500 nM | CS(=O)(=O)c1ccc(F)c(NC(=O)c2cc(C(F)(F)F)cnc2Oc2ccc(OC(F)(F)F)cc2Cl)c1 [Example 162, 2-[2-chloro-4-(trifluoromethoxy)phenoxy]-N-(2-fluoro-5-methylsulfonyl-phenyl)-5-(trifluoromethyl)pyridine-3-carboxamide]
> 1000 nM | O=C(Nc1cccc(F)c1)c1cc(C(F)(F)F)cnc1Oc1ccc(OC(F)(F)F)cc1Cl [Example 163, 2-[2-chloro-4-(trifluoromethoxy)phenoxy]-N-(3-fluorophenyl)-5-(trifluoromethyl)pyridine-3-carboxamide]
< 500 nM | Cc1cc(NC(=O)c2cc(C(F)(F)F)cnc2Oc2ccc(OC(F)(F)F)cc2Cl)ccn1 [Example 164, 2-[2-chloro-4-(trifluoromethoxy)phenoxy]-N-(2-methyl-4-pyridyl)-5-(trifluoromethyl)pyridine-3-carboxamide]
< 500 nM | O=C(Nc1ccnc(F)c1)c1cc(C(F)(F)F)cnc1Oc1ccc(OC(F)(F)F)cc1Cl [Example 165, 2-[2-chloro-4-(trifluoromethoxy)phenoxy]-N-(2-fluoro-4-pyridyl)-5-(trifluoromethyl)pyridine-3-carboxamide]
500 to 1000 nM | O=C(Nc1cnns1)c1cc(C(F)(F)F)cnc1Oc1ccc(OC(F)(F)F)cc1Cl [Example 166, 2-[2-chloro-4-(trifluoromethoxy)phenoxy]-N-(thiadiazol-5-yl)-5-(trifluoromethyl)pyridine-3-carboxamide]
